Results: patent US12459934B2, “Pesticidal compounds” (BASF SE, priority 2018, dated 2025)

Legend:
Assay type in all cases: in vivo
[1] = tested on: Western Flower Thrips (Frankliniella occidentalis); assay: Western flower thrips on leaf discs of sprayed cotton plants; conditions: foliar, 48 h, 2 DAT (days after treatment), read-out: mortality in comparison with untreated controls
Experimental: The active compounds were formulated by a Tecan liquid handler in 100% cyclohexanone as a 10,000 ppm solution supplied in tubes. The 10,000 ppm solution was serially diluted in 100% cyclohexanone to make interim solutions. These served as stock solutions for which final dilutions were made by the Tecan in 50% acetone:50% water (v/v) into 10 or 20 ml glass vials. A nonionic surfactant (Kinetic®) was included in the solution at a volume of 0.01% (v/v). The vials were then inserted into an automated electrostatic sprayer equipped with an atomizing nozzle for application to plants/insects.
Small (˜2″ in height) cotton plants are sprayed with test compounds at concentrations ranging from 300 to 0.01 ppm in acetone/water through the automated VPS. After drying, cotton leaves are removed and circular leaf discs (−1 cm diameter) are punched from the treated surface and transferred to clean 20 mL scintillation vials. Ten Western flower thrips (FRANOC) are aspirated into each scintillation vial. The vials with the leaf discs and thrips are kept in an upright incubator at 25° C. and 50% relative humidity with a 14:10 light:dark photoperiod. Each treatment is replicated twice.
Thrips mortality is assessed at 2 DAT (days after treatment), counting all thrips both dead and alive. [The average absolute mortality is calculated for each treatment.]

[2] = tested on: Orchid Thrips (Dichromothrips corbetti); assay: Orchid thrips, floral-immersion technique; conditions: dipped orchid petals, adult thrips, 72 hours after treatment, read-out: mortality in comparison with untreated controls
Experimental: Dichromothrips corbetti adults used for bioassay were obtained from a colony maintained continuously under laboratory conditions. For testing purposes, the test compound is diluted in a 1:1 mixture of acetone:water (vol:vol), plus Kinetic® HV at a rate of 0.01% v/v.
Thrips potency of each compound was evaluated by using a floral-immersion technique. All petals of individual, intact orchid flowers were dipped into treatment solution and allowed to dry in Petri dishes. Treated petals were placed into individual re-sealable plastic along with about 20 adult thrips. All test arenas were held under continuous light and a temperature of about 28° C. for duration of the assay. After 3 days, the numbers of live thrips were counted on each petal. The percent mortality was recorded 72 hours after treatment.

[3] = tested on: boll weevil (Anthonomus grandis); assay: Boll weevil control, 96-well microtiter plate with insect diet and eggs; conditions: 120 h, sprayed onto insect diet, assessed after 5 days, read-out: mortality in comparison with untreated controls (egg and larval mortality)
Experimental: For evaluating control of boll weevil (Anthonomus grandis) the test unit consisted of 96-well-microtiter plates containing an insect diet and 5-10 A. grandis eggs.
The compounds were formulated using a solution containing 75% v/v water and 25% v/v DMSO. Different concentrations of formulated compounds were sprayed onto the insect diet at 5 μl, using a custom built micro atomizer, at two replications.
After application, microtiter plates were incubated at about 25±1° C. and about 75±5% relative humidity for 5 days. Egg and larval mortality was then visually assessed.

[4] = tested on: yellow fever mosquito (Aedes aegypti); assay: whole plant or invertebrate; conditions: 48 h, freshly hatched larvae in tap water, assessed after 2 days, read-out: mortality in comparison with untreated controls (larval mortality)
Experimental: For evaluating control of yellow fever mosquito (Aedes aegypti) the test unit consisted of 96-well-microtiter plates containing 200 μl of tap water per well and 5-15 freshly hatched A. aegypti larvae. The active compounds were formulated using a solution containing 75% (v/v) water and 25% (v/v) DMSO. Different concentrations of formulated compounds or mixtures were sprayed onto the insect diet at 2.5 μl, using a custom built micro atomizer, at two replications.
After application, microtiter plates were incubated at 28+1° C., 80+5% RH for 2 days. Larval mortality was then visually assessed.

[5] = tested on: Diamond Back Moth (Plutella xylostella); assay: Diamond back moth, cabbage leaf dip test; conditions: foliar, 3rd instar larvae, 72 hours after treatment, read-out: mortality in comparison with untreated controls
Experimental: The active compound is dissolved at the desired concentration in a mixture of 1:1 (vol:vol) distilled water:acetone. Surfactant (Alkamuls® EL 620) is added at a rate of 0.1% (vol/vol). The test solution is prepared at the day of use.
Leaves of cabbage were dipped in test solution and air-dried. Treated leaves were placed in petri dish enlined with moist filter paper and inoculated with ten 3rd instar larvae. Mortality was recorded 72 hours after treatment. Feeding damages were also recorded using a scale of 0-100%.

[6] = tested on: tobacco budworm (Heliothis virescens); assay: Tobacco budworm control, 96-well microtiter plate with insect diet and eggs; conditions: 120 h, sprayed onto insect diet, assessed after 5 days, read-out: mortality in comparison with untreated controls (egg and larval mortality)
Experimental: For evaluating control of tobacco budworm (Heliothis virescens) the test unit consisted of 96-well-microtiter plates containing an insect diet and 15-25 H. virescens eggs.
The compounds were formulated using a solution containing 75% v/v water and 25% v/v DMSO. Different concentrations of formulated compounds were sprayed onto the insect diet at 10 μl, using a custom built micro atomizer, at two replications.
After application, microtiter plates were incubated at about 28±1° C. and about 80±5% relative humidity for 5 days. Egg and larval mortality was then visually assessed.

[7] = tested on: Southern Armyworm (Spodoptera eridania), 2nd Instar Larvae; assay: Southern armyworm 2nd instar larvae on sprayed lima bean plants; conditions: 96 h, 4 days after treatment, read-out: mortality in comparison with untreated controls
Experimental: (§1) The active compounds were formulated in cyclohexanone as a 10,000 ppm solution supplied in tubes. The tubes were inserted into an automated electrostatic sprayer equipped with an atomizing nozzle and they served as stock solutions for which lower dilutions were made in 50% acetone:50% water (v/v). A nonionic surfactant (Kinetic®) was included in the solution at a volume of 0.01% (v/v).
Lima bean plants (variety Sieva) were grown 2 plants to a pot and selected for treatment at the 1st true leaf stage. Test solutions were sprayed onto the foliage by an automated electrostatic plant sprayer equipped with an atomizing spray nozzle. The plants were dried in the sprayer fume hood and then removed from the sprayer. Each pot was placed into perforated plastic bags with a zip closure. About 10 to 11 armyworm larvae were placed into the bag and the bags zipped closed. Test plants were maintained in a growth room at about 25° C. and about 20-40% relative humidity for 4 days, avoiding direct exposure to fluorescent light (24 hour photoperiod) to prevent trapping of heat inside the bags. Mortality and reduced feeding were assessed 4 days after treatment, compared to untreated control plants.

[8] = tested on: Silverleaf Whitefly (Bemisia argentifolii) (Adults); assay: Silverleaf whitefly adults on sprayed cotton plants; conditions: 72 h, 3 days after treatment, read-out: mortality in comparison with untreated controls
Text: as §1, with “non-ionic” for “nonionic”
Cotton plants at the cotyledon stage (one plant per pot) were sprayed by an automated electrostatic plant sprayer equipped with an atomizing spray nozzle. The plants were dried in the sprayer fume hood and then removed from the sprayer. Each pot was placed into a plastic cup and about 10 to 12 whitefly adults (approximately 3-5 days old) were introduced. The insects were collected using an aspirator and a nontoxic Tygon® tubing connected to a barrier pipette tip. The tip, containing the collected insects, was then gently inserted into the soil containing the treated plant, allowing insects to crawl out of the tip to reach the foliage for feeding. Cups were covered with a reusable screened lid. Test plants were maintained in a growth room at about 25° C. and about 20-40% relative humidity for 3 days, avoiding direct exposure to fluorescent light (24-hour photoperiod) to prevent trapping of heat inside the cup. Mortality was assessed 3 days after treatment, compared to untreated control plants.

CC(C)c1ccccc1NC(=S)N/N=C/c1ccc2c(C(=O)Nc3ccc(OC(F)(F)F)cc3)nccc2c1 [Compound C-1, 6-[(E)-[(2-isopropylphenyl)carbamothioylhydrazono]methyl]-N-[4-(trifluoromethoxy)phenyl]isoquinoline-1-carboxamide]
> 75%: mortality at 300 ppm [1] | mortality at 300 ppm [2] | mortality at 800 ppm [3] | mortality at 800 ppm [4] | mortality at 300 ppm [5] | mortality at 800 ppm [6] | mortality at 300 ppm [7]

CC(C)c1ccccc1N1C(=O)CS/C1=N\N=C\c1ccc2c(C(=O)Nc3ccc(OC(F)(F)F)cc3)nccc2c1 [Compound C-2, 6-[(E)-[(Z)-[3-(2-isopropylphenyl)-4-oxo-thiazolidin-2-ylidene]hydrazono]methyl]-N-[4-(trifluoromethoxy)phenyl]isoquinoline-1-carboxamide]
> 75%: mortality at 300 ppm [1] | mortality at 300 ppm [2] | mortality at 800 ppm [3] | mortality at 800 ppm [4] | mortality at 300 ppm [5] | mortality at 300 ppm [8] | mortality at 800 ppm [6] | mortality at 300 ppm [7]
